Test results published in US20250387382A1, “METHODS OF TREATING ESSENTIAL TREMOR” (Praxis Precision Medicines, Inc., priority 2023, published 2025).

System: participants with moderate to severe ET
Test: Phase 2 trial, randomized double-blind placebo-controlled part: efficacy (TETRAS mADL, ADL, mADL11, PGI-C, CGI-S)
Assay type: in vivo, human
Source text: Severity of ET in this study was defined by eligibility criteria on TETRAS-ADL, CGI-S, and TETRAS-PS items 6 and 7. This dose range finding trial is comprised of three parts. The first part was randomized, double-blinded (DB), and placebo-controlled, the second part was an optional extension that consisted of an Extension DB Lead-in Period followed by an Extension Open-label (OL) Period. Further, there was also a third part available for completers of the Day 99 visit, which third part was comprised of a blinded cross-over period (referred to as cross-over period) after re-randomization for 6 weeks, after which all completers would receive formula (I) in an open-label fashion. […] The primary objective of this trial was to evaluate the efficacy of Compound 1 compared to placebo after 56 days (end of randomized, DB, placebo-controlled part) of dosing in participants with ET with moderate to severe tremor utilizing modified ADL as the primary efficacy endpoint. Secondary and exploratory objectives include further efficacy evaluations, an evaluation of the safety and tolerability, and determination of plasma concentrations of formula (I) and its metabolites. The design of the Phase 2 trial is illustrated in FIG. 1.
Participants who continued to meet all clinical trial entry criteria on Day 1 were randomized to receive DB treatment with Compound 1 or placebo every morning (QAM) from Day 1 through Day 56. Participants were randomized to 1 of 2 fixed-dose regimens or placebo in a 1:1:1 ratio. No dosage adjustments were allowed.
On Days 14, 28, 42, and 56, participants returned to the clinic for PK sampling, dosing, efficacy, and safety assessments. Key efficacy assessments at these visits included TETRAS-PS, TETRAS ADL, CGI-S, CGI-I, and PGI C.
Fixed titration regimens were used (Table 1). Participants were not allowed to adjust the number of tablets per day.
Selected items from the TETRAS-ADL and TETRAS-PS (or TETRAS-CUL, as appropriate) were scored in a modified manner and combined to create a TETRAS modified total score. Items 1-11 in the TETRAS ADL subscale and items 6 and 7 of the TETRAS-PS were used, with scoring adjusted so that response options 0 and 1 were combined into a single response of “0=Normal.” Further, scores of 2, 3, and 4 were adjusted to 1, 2, and 3, respectively. The TETRAS modified total score were the sum of these adjusted TETRAS-ADL and TETRAS PS items, having a possible range of 0 to 42, where larger values represent increased direct tremor impact to activities of daily living. The items that are included in the TETRAS-modified total score are illustrated in FIG. 2.
The primary efficacy measure in this clinical trial was change from baseline in mADL at day 56. Ulixacaltamide effect on individual mADL items was determined by calculating the fold-change adjusted by placebo change at Day 56 in mADL for individual mADL items. The secondary efficacy measures included change in Clinical Global Impression-Severity (CGI-S) score, Patient Global Impression-Change (PGI-C) score, TETRAS-ADL total score, TETRAS-UL score, TETRAS-CUL score and TETRAS-PS score.

CC(C)(C)NC(=O)CN1CCC(CNC(=O)c2cc(F)cc(Cl)c2)CC1 [Compound 1, N-((1-(2-(tert-butylamino)-2-oxoethyl)piperidin-4-yl)methyl)-3-chloro-5-fluorobenzamide]
mADL11 treatment effect relative to placebo (Day 14, participants without intention tremor): 1.03 points | LSM mADL11 change from baseline, treatment effect relative to placebo (Day 28): 1.44 | TETRAS PS items (dominant hand handwriting, left and right hand spirals), improvement vs placebo (Day 56): less improvement than those receiving placebo | mADL11 LSM treatment difference vs placebo (after 56 days, 95% CI −3.565, −0.066, nominal p <0.05): −1.82 | mADL and mADL11 scores vs. placebo at each scored timepoint (after day 14, FIG. 15): improvement | Magnitude of benefit on mADL11 vs placebo, 60 mg vs 100 mg groups (change from baseline versus placebo): largely similar | Modified ADL (mADL) scores in the Phase 2 trials (daily doses ranging from 20 to 120 mg for up to 56 days): reduced modified ADL (mADL) scores | mADL scores, patients showing improvement vs placebo (day 56, FIG. 9): more patients taking ulixacaltamide showed improvements | ADL score, average reduction compared to baseline (day 56, n=78): 3.6 points | ADL scored items with consistent effect relative to placebo (individual items, Day 56): 8 of 11 | Patients improved on CGI-S scale (mITT): 42% | Patients improved on PGI-C scale (mITT): 47% | mADL-scored items vs baseline in ET patients who do not have intention tremor (mITT excluding intention tremor, FIGS. 18 and 19): larger improvement | Placebo-adjusted mADL excluding PS, 60 mg vs 100 mg regimens (mITT patients without intention tremor, FIG. 20): consistent effect observed across both tested dosing regimens | mADL LS mean difference vs. placebo (mITT, Day 56, p=0.126): 1.57 | Modified ADL score, mean decrease (n=78, placebo 0.88 points): 2.69 points | Patients achieving at least a 3-point improvement in mADL11 (patients on propranolol and ulixacaltamide, 25% for propranolol and placebo): 48% | mADL excluding PS items, LS mean difference vs. placebo (post hoc, Day 56, mITT, p=0.042): 1.81 | Treated participants with at least a 2 point improvement in total score (post-hoc responder analysis, 0.5 SD threshold, mITT): greater than 50% | Treated subjects with at least a 4 point improvement in total score (post-hoc responder analysis, 1 SD threshold, mITT): roughly 40% | Response rates vs placebo for mADL and mADL excluding PS items (post-hoc responder analysis, MCID distribution method, mITT): greater response rates | Change in TETRAS-ADL, LS mean difference vs. placebo (secondary endpoint, p=0.026): 2.53
